{"source": "patent US20240383911A1", "about": "“AZAINDAZOLE MACROCYCLE COMPOUNDS AND USES THEREOF” (BROADENBIO CO., LTD, priority 2021, published 2024)", "key": {"HPK1": {"biological_target": "HPK1 (Homo sapiens, UniProt Q92918)", "sequence (Q92918 whole entry)": "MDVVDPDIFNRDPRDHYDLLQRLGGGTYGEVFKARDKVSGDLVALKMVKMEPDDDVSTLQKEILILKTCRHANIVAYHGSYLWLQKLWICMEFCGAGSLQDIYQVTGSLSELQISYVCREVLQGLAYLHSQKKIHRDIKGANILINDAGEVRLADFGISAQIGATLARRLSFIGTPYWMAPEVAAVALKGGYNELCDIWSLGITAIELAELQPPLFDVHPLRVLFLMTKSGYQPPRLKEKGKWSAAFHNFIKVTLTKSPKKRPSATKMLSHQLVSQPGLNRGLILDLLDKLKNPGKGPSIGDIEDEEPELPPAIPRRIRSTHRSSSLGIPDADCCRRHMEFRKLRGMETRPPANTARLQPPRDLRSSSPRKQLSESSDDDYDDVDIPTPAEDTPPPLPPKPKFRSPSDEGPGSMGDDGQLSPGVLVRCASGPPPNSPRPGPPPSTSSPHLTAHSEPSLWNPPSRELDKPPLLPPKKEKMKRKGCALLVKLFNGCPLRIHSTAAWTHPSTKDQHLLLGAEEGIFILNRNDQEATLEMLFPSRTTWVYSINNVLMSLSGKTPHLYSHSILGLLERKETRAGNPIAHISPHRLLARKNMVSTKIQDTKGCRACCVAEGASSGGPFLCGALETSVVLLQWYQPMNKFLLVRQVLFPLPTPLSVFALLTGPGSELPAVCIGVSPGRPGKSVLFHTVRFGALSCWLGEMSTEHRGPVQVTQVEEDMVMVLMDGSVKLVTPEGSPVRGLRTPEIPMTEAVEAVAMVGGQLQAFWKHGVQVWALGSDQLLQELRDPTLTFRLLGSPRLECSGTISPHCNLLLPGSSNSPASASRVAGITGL", "test": "HPK1 kinase activity inhibition test (ADP-Glo, luminescence)", "type": "biochemical", "settings": "2 μM ATP, 5 nM HPK1, read-out: IC50, inhibitory effects on HPK1 kinase activity", "in_short": "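Autophosphorylation assay without added substrate: HPK1 preincubated with compound 10 min at 25 °C, then ATP added for 60 min at 25 °C; final DMSO 0.5%. ADP measured by ADP-Glo luminescence; IC50 from four-parameter nonlinear fit.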"}, "Human Jurkat-E6-1 cells": {"tested_on": "Human Jurkat-E6-1 cells", "test": "Detection of IL-2 production by Jurkat cells using ELISA", "type": "cell-based", "settings": "anti-CD3/anti-CD28 stimulation 24 hours, read-out: Percentage of the amount of IL-2 secreted by compound treated vs DMSO-treated cells; for activity at 1 µM: tested compound 1.0 μM", "in_short": "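Jurkat E6-1 cells were pre-incubated with compound for 30 min at 37 °C, then stimulated 24 h on plate-bound anti-CD3 plus soluble anti-CD28. Secreted IL-2 in supernatant was measured by sandwich ELISA (450 nm) against a standard curve and expressed as % of DMSO-treated cells.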"}, "MV-4-11 cells": {"tested_on": "MV-4-11 cells", "test": "Detection of MV-4-11 cell activity (CellTiter-Glo)", "type": "cell-based", "settings": "Homo sapiens, MV4-11, 120 h, 5 days, CTG, read-out: IC50, inhibitory effects on MV-4-11 cell activity", "description": "The CellTiter-Glo (CTG) luminescence method was used to detect the effect of compounds on the activity of MV-4-11 cells.\nTested compounds: compound prepared in the Examples of the present invention.\nAdd 100 μL containing 20,000 MV-4-11 (human myeloid monocytic leukemia cells, from the Cell Bank of the Chinese Academy of Sciences, Cat. No. SCSP-5031) cell suspension to 96-well flat-bottom clear-bottomed cell plates (Corning, Cat #3603), and then add 100 μL of cell culture medium containing a series of concentrations of the compound to be tested, with a total volume of 200 μL per well. The final gradient concentrations of the compounds were 500 nM, 125 nM, 31.25 nM, 7.813 nM, 1.953 nM, 0.488 nM, 0.122 nM, 0.031 nM, and 0.008 nM, and the final DMSO content was 0.5%. Set cells with the cell culture medium containing 0.5% DMSO but without compounds as the 100% control; set the culture medium wells without cells as 0% background control. Incubate the cell plate in a humidified incubator at 37° C. and 5% CO2 for 5 days. After 5 days, take out the cell plate, centrifuge (1000 rpm) for 5 minutes, remove and discard 100 μL supernatant, add 100 μL CTG reagent (Promega, Cat #G7572) to each well, shake at room temperature for 10 minutes to promote cell lysis, and incubate at room temperature for 30 minutes to stabilize the luminescence signal. Use a microplate reader (Molecular Device, i3X) to read the Luminescent fluorescence value, use GraphPad Prism 5.0 software to analyze the original data, use nonlinear S-curve regression to fit the data to obtain the dose-effect curve (cell survival rate %), and calculate the IC50 value."}, "FLT3": {"biological_target": "T1, FLT3 (Homo sapiens, UniProt P36888)", "T1 sequence (P36888 27-993)": "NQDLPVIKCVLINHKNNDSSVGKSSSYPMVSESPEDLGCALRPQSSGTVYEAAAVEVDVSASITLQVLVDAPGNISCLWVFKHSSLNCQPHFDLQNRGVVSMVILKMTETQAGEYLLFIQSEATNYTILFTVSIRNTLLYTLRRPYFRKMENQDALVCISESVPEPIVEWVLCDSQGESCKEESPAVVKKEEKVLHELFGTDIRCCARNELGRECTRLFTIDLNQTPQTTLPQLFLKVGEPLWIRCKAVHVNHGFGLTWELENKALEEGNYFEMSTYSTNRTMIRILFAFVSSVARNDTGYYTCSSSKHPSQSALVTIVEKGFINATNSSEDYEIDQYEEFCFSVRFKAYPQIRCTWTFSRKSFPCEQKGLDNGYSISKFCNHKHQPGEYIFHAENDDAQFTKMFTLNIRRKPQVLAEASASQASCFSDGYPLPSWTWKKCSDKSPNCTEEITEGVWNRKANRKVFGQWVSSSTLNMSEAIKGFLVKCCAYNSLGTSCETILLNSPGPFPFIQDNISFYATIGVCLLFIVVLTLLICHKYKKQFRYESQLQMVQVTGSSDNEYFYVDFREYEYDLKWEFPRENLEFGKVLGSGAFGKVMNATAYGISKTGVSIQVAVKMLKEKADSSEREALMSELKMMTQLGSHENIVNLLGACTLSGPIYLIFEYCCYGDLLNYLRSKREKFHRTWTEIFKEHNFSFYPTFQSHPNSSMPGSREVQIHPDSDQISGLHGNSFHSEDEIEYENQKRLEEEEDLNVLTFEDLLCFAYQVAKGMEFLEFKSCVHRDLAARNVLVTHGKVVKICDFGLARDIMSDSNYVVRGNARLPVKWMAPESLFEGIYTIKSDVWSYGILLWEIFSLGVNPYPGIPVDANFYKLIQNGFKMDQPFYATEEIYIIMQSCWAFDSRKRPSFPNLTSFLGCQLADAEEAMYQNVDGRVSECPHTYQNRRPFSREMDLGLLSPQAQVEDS", "test": "FLT3 kinase activity inhibition test (HTRF)", "type": "biochemical", "settings": "read-out: IC50, inhibitory effects on FLT3 kinase activity", "description": "(§1) Tested compounds: compounds prepared in the Examples of this invention.\n(§2) Prepare compound stock solution: dissolve the test compound in 100% DMSO to make a 10 mM stock solution. Dilute the stock solution of the test compound by 5 times with 100% DMSO, make a 4-fold equal dilution in a 96-well dilution plate, add 1 μL of the compound to 39 μL of kinase reaction buffer (1×kinase buffer, 5 mM MgCl2, 1 mM DTT), and shake on a microplate shaker for 20 minutes. 4×Positive control (4 μL of positive compound solution of the starting concentration, add 196 μL of kinase buffer) and 4×negative control (4 μL of 100% DMSO, add 196 μL of kinase buffer).\n(§3) (1) Use 1×kinase reaction buffer to prepare 2.5×FLT3 kinase solution (160 μM), transfer 2 μL of the kinase solution to the 384 reaction plate, and add 1 μL of the test compound solution of gradient concentration to the 384 reaction plate (Greiner, Cat #784075), centrifuge for 1 minute (1000 rpm), and incubate at 25° C. for 10 minutes.\n(§4) (2) Use 1×kinase reaction buffer to prepare 2.5×TK-substrate-biotin (2.5 μM) and 2.5×ATP (2.5 μM), mix well, and add 2 μL of the TK-substrate-biotin/ATP solution to the 384 reaction plate, centrifuge for 30 seconds (1000 rpm), and incubate at 25° C. for 40 minutes.\n(§5) (3) Use HTRF detection buffer to prepare 2×Sa-XL 665 (125 nM) and 1×TK-antibody-Cryptate. Add 5 μL of a mixture of Sa-XL 665 and TK-antibody-Cryptate solutions to each well, centrifuge for 30 seconds (1000 rpm), and react at room temperature for 1 hour.\n(§6) (4) The fluorescence signal is read using a Biotek multi-function plate reader, and the IC50 (half inhibitory concentration) of the compound is obtained using a four-coefficient nonlinear fitting formula."}, "KDR": {"biological_target": "KDR (Homo sapiens, UniProt P35968)", "sequence (P35968 20-1356)": "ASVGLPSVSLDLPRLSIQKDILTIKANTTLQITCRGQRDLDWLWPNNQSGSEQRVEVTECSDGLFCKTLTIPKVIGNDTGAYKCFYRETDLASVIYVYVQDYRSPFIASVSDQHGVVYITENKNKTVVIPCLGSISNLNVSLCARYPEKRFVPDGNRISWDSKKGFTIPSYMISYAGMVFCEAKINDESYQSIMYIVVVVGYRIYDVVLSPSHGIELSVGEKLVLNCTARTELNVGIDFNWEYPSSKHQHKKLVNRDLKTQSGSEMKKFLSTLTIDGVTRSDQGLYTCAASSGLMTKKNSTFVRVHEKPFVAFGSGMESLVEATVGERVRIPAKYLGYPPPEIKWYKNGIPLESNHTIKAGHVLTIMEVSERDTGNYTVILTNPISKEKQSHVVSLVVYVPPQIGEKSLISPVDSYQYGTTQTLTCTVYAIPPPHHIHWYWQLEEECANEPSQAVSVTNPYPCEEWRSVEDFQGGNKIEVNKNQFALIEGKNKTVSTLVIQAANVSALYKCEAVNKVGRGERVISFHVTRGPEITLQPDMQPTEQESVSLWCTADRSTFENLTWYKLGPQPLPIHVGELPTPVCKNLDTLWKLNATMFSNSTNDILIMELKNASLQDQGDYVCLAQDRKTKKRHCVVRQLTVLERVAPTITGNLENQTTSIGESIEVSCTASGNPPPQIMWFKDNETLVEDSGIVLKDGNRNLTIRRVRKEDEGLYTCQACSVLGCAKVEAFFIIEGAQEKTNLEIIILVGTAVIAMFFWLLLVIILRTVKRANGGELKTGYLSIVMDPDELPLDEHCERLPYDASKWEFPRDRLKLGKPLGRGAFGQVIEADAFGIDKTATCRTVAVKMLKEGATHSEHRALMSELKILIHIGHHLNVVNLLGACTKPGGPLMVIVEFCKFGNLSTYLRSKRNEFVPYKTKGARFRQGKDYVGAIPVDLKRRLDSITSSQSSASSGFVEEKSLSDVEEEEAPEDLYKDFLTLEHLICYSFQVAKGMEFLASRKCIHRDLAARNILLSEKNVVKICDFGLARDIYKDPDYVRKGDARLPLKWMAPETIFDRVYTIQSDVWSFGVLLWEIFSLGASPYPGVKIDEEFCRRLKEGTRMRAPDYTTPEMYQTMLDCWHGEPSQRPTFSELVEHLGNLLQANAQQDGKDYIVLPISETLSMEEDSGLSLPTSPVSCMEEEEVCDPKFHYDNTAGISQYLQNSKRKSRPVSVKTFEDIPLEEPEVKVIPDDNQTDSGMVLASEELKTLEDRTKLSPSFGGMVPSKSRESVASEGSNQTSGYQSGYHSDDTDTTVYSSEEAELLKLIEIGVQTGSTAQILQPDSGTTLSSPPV", "test": "KDR kinase activity inhibition test (HTRF)", "type": "biochemical", "settings": "read-out: IC50, inhibitory effects on KDR kinase activity", "description": "as §1, §2\nas §3, with “2.5×KDR” for “2.5×FLT3”, “(250” for “(160”\nas §4, §5, §6"}}, "data": [{"smiles": "Fc1cccc2c1-c1cc3c(n[nH]c3cn1)-c1ccc(N3CCOCC3)c(c1)OCCCO2", "note": "[Compound 5, 16-fluoro-5-(morpholin-4-yl)-7,11-dioxa-19,22,23-triazapentacyclo[16.5.2.1^2,6.0^12,17.0^21,24]hexacosa-1(23),2(26),3,5,12,14,16,18,20,24-decaene]", "values": [{"measurement": "IC50", "setting": "HPK1", "result": "5 to 50", "unit": "nM"}, {"measurement": "activity at 3 µM", "setting": "Human Jurkat-E6-1 cells; tested compound 3.0 μM", "result": 717, "unit": "%"}, {"measurement": "IC50", "setting": "MV-4-11 cells", "result": 50, "unit": "nM"}]}, {"smiles": "CN1CCN(c2ccc3cc2OCCCOCc2cccc(F)c2-c2cc4c-3n[nH]c4cn2)CC1", "note": "[Compound 11, 17-fluoro-5-(4-methylpiperazin-1-yl)-7,11-dioxa-20,23,24-triazapentacyclo[17.5.2.1^2,6.0^13,18.0^22,25]heptacosa-1(24),2(27),3,5,13,15,17,19,21,25-decaene]", "values": [{"measurement": "IC50", "setting": "HPK1", "result": "≤ 5", "unit": "nM"}, {"measurement": "IC50", "setting": "FLT3", "result": "≤ 5", "unit": "nM"}, {"measurement": "IC50", "setting": "KDR", "result": "≤ 5", "unit": "nM"}, {"measurement": "IC50", "setting": "MV-4-11 cells", "result": 6.1, "unit": "nM"}]}, {"smiles": "Fc1cccc2c1-c1cc3c(n[nH]c3cn1)-c1ccc(N3CCN4CCOC[C@H]4C3)c(c1)OCCCO2", "note": "[Compound 102, 5-[(9aR)-octahydropyrazino[2,1-c][1,4]oxazin-8-yl]-16-fluoro-7,11-dioxa-19,22,23-triazapentacyclo[16.5.2.1^2,6.0^12,17.0^21,24]hexacosa-1(23),2,4,6(26),12(17),13,15,18,20,24-decaene]", "values": [{"measurement": "IC50", "setting": "HPK1", "result": "≤ 5", "unit": "nM"}, {"measurement": "IC50", "setting": "FLT3", "result": "≤ 5", "unit": "nM"}, {"measurement": "IC50", "setting": "KDR", "result": "≤ 5", "unit": "nM"}, {"measurement": "activity at 1 µM", "setting": "Human Jurkat-E6-1 cells", "result": 702, "unit": "%"}]}, {"smiles": "CN1C[C@@H]2C[C@H]1CN2c1ccc2cc1OCCCOCc1cccc(F)c1-c1cc3c-2n[nH]c3cn1", "note": "[Compound 151, 17-fluoro-5-[(1S,4S)-5-methyl-2,5-diazabicyclo[2.2.1]heptan-2-yl]-7,11-dioxa-20,23,24-triazapentacyclo[17.5.2.1^2,6.0^13,18.0^22,25]heptacosa-1(24),2,4,6(27),13(18),14,16,19,21,25-decaene]", "values": [{"measurement": "IC50", "setting": "HPK1", "result": "≤ 5", "unit": "nM"}, {"measurement": "IC50", "setting": "FLT3", "result": "≤ 5", "unit": "nM"}, {"measurement": "IC50", "setting": "KDR", "result": "≤ 5", "unit": "nM"}, {"measurement": "activity at 1 µM", "setting": "Human Jurkat-E6-1 cells", "result": 416, "unit": "%"}]}, {"smiles": "O[C@H]1COc2cc(ccc2N2CCN3CCOC[C@H]3C2)-c2n[nH]c3cnc(cc23)-c2c(F)cccc2OC1", "note": "[Compound 119, (9R)-5-[(9aR)-octahydropyrazino[2,1-c][1,4]oxazin-8-yl]-16-fluoro-7,11-dioxa-19,22,23-triazapentacyclo[16.5.2.1^2,6.0^12,17.0^21,24]hexacosa-1(23),2,4,6(26),12(17),13,15,18,20,24-decaen-9-ol]", "values": [{"measurement": "IC50", "setting": "HPK1", "result": "5 to 50", "unit": "nM"}, {"measurement": "IC50", "setting": "FLT3", "result": "≤ 5", "unit": "nM"}, {"measurement": "IC50", "setting": "KDR", "result": "≤ 5", "unit": "nM"}, {"measurement": "activity at 0.33 µM", "setting": "Human Jurkat-E6-1 cells; tested compound 0.33 μM", "result": 591, "unit": "%"}]}]}
